Measurements from publication PMC5431883, “Enhancing Specific Disruption of Intracellular Protein Complexes by Hydrocarbon Stapled Peptides Using Lipid Based Delivery” (Scientific Reports, 2017).
Positions of bridges follow the written chain, without caps; N, C: chain ends. Non-standard residues stand in square brackets, D forms with d. Residues, ends and D or L forms follow the SMILES beside them. *: point of attachment. Trp(6-Cl) = N[C@@H](Cc1c[nH]c2cc(Cl)ccc12)C(=O)O; Biotin = O=C1N[C@H]2[C@H](CS[C@H]2CCCCC(=O)*)N1; R8 = C=CCCCCCC[C@@](C)(N)C(=O)O; Cba = N[C@@H](CC1CCC1)C(=O)O; S5 = C=CCCC[C@](C)(N)C(=O)O; Ahx = NCCCCCC(=O)O

These molecules were tested against T1, Mdm2 (1-125) (Homo sapiens, UniProt Q00987) (assay: Mdm2 competitive fluorescence anisotropy assay (FAM-labeled 12/1 peptide displacement)). Conditions: read-out: Kd (apparent dissociation constant, competitive fluorescence anisotropy).
T1 construct: Purified MDM2 (1-125) protein was titrated against 50 nM carboxyfluorescein (FAM)-labeled; GST (N, cleaved yes); made in house; host or cells: E. coli BL21 DE3 (pGEX-6P-1)
Format: binding
Procedure: analyzed with SDS page gel and concentrated using a Centricon (3.5 kDa MWCO) concentrator, Millipore. Mdm2 protein samples were then dialyzed into a buffer solution containing 20mM Bis-Tris, pH 6.5, 0.05M NaCl with 1mM DTT and loaded onto a monoS column pre-equilibrated in buffer A (20mM Bis-Tris, pH 6.5, 1mM DTT). The column was then washed in 6 column volumes of buffer A and bound protein was eluted with a linear gradient of 1M NaCL over 25 column volumes. Protein fractions were analyzed with SDS page gel and concentrated using a Centricon (3.5 kDa MWCO) concentrator, Millipore.
Protein concentration was determined using A280 using an extinction coefficients […]
Mdm2 Competitive Fluorescence Anisotropy Assay and Kd Determination […]
Dissociation constants for titration of MDM2 against […]
equation shown below:25,26
[P] is the protein concentration (MDM2), [L] is the labeled peptide concentration, r is the anisotropy measured, r0 is the anisotropy of the free peptide, rb is the anisotropy of the MDM2– FAM-labeled peptide complex, Kd is the dissociation constant, [L]t is the total FAM labeled
(1 picture or pasted object on this page, not shown here) […]
peptide concentration, and [P]t is the total MDM2 concentration. […]
respective competing ligands in subsequent competition assays.
Apparent Kd values were determined for a variety of molecules via competitive fluorescence anisotropy experiments. Titrations were carried out with the concentration of MDM2 held constant […]
The competing molecules were then titrated against the complex of the FAM-labeled peptide and protein. Apparent Kd values were determined by fitting the experimental data to the equations shown below:26,27 […]
[L]st and [L]t denote labeled ligand and total unlabeled ligand input concentrations, respectively.
Kd2 is the dissociation constant of the interaction between the unlabeled ligand and the protein. In […]
all competitive types of experiments, it is assumed that [P]t > [L]st, otherwise considerable amounts of free labeled ligand would always be present and would interfere with measurements. Kd1 is the […]
experimentally determined as described in the previous paragraph. The FAM-labeled peptide was dissolved in dimethyl sulfoxide (DMSO) at 1 mM and diluted into experimental buffer. Readings were carried out with an Envision Multilabel Reader (PerkinElmer). Experiments were carried out […]
Tween 20 buffer. All titrations were carried out in triplicate. Curve-fitting was carried out using […]
Negative control titrations of the ligands under investigation were also carried out with the fluorescently labeled peptide (in the absence of MDM2) to ensure no interactions were occurring between the ligands and FAM-labeled peptide. […]
which would otherwise indicate an unintended interaction between the ligand and the FAM-labeled peptide to be displaced from the MDM2 binding site. […]
Further: 250 nM MDM2.

T1 sequence (Q00987 1-125): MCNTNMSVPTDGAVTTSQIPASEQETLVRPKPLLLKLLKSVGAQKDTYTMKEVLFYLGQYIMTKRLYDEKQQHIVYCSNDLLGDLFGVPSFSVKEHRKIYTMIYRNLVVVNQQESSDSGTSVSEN

| Structure (SMILES) | Kd |
| --- | --- |
| CC(C)C[C@@H]1NC(=O)[C@H](C)NC(=O)[C@H](Cc2c[nH]c3ccccc23)NC(=O)[C@H](Cc2ccc(O)cc2)NC(=O)[C@H](CCC(=O)O)NC(=O)[C@](C)(NC(=O)[C@H](Cc2ccccc2)NC(=O)[C@H](CO)NC(=O)[C@@H](NC(=O)CCCCCNC(=O)CCCC[C@@H]2SC[C@@H]3NC(=O)N[C@@H]32)[C@@H](C)O)CCCCCCC=CCCC[C@@](C)(C(N)=O)NC(=O)[C@H](CC(C)C)NC1=O [VIP-67] | 100 ± 7.7 nM |
| CC(C)C[C@@H]1NC(=O)[C@H](C)NC(=O)[C@H](Cc2c[nH]c3ccccc23)NC(=O)[C@H](Cc2ccc(O)cc2)NC(=O)[C@H](CCC(=O)O)NC(=O)[C@](C)(NC(=O)[C@H](Cc2ccccc2)NC(=O)[C@H](CO)NC(=O)[C@@H](NC(=O)CCCCCNC(=O)CCCC[C@@H]2SC[C@@H]3NC(=O)N[C@@H]32)[C@@H](C)O)CCCCCCC=CCCC[C@@](C)(C(N)=O)NC(=O)[C@H](CC2CCC2)NC1=O [VIP-68] ({Biotin-Ahx}-TSF[R8]EYWAL[Cba][S5]-NH2; staple 4-11) | 41.6 ± 1.7 nM |
| CC(=O)N[C@@H](Cc1c[nH]cn1)C(=O)N[C@@H](Cc1c[nH]cn1)C(=O)N[C@@H](Cc1c[nH]cn1)C(=O)NCCCCCC(=O)N[C@H](C(=O)N[C@@H](CO)C(=O)N[C@@H](Cc1ccccc1)C(=O)N[C@]1(C)CCCCCCC=CCCC[C@@](C)(C(=O)N[C@@H](CCC(=O)O)C(=O)N[C@@H](CC(N)=O)C(=O)N[C@@H](Cc2ccccc2)C(N)=O)NC(=O)[C@H](CC(C)C)NC(=O)[C@H](CC(C)C)NC(=O)[C@H](C)NC(=O)[C@H](Cc2c[nH]c3ccccc23)NC(=O)[C@H](Cc2ccc(O)cc2)NC(=O)[C@H](CCC(=O)O)NC1=O)[C@@H](C)O [VIP-81] (Ac-HHH[Ahx]TSF[R8]EYWALL[S5]ENF-NH2; staple 8-15) | 61.2 ± 6.5 nM |
| CC(=O)N[C@H](C(=O)N[C@@H](CO)C(=O)N[C@@H](Cc1ccccc1)C(=O)N[C@]1(C)CCCCCCC=CCCC[C@@](C)(C(=O)N[C@@H](CCC(=O)O)C(N)=O)NC(=O)[C@H](CC(C)C)NC(=O)[C@H](CC(C)C)NC(=O)[C@H](C)NC(=O)[C@H](Cc2c[nH]c3cc(Cl)ccc23)NC(=O)[C@H](Cc2ccc(O)cc2)NC(=O)[C@H](CCC(=O)O)NC1=O)[C@@H](C)O [VIP-137] | < 1 nM |
| CC(C)C[C@@H]1NC(=O)[C@H](C)NC(=O)[C@H](Cc2c[nH]c3ccccc23)NC(=O)[C@H](Cc2ccc(O)cc2)NC(=O)[C@H](CCC(=O)O)NC(=O)[C@](C)(NC(=O)[C@H](Cc2ccccc2)NC(=O)[C@H](CO)NC(=O)[C@@H](NC(=O)CNC(=O)[C@H](CO)NC(=O)CNC(=O)[C@H](CO)NC(=O)CCCC[C@@H]2SC[C@@H]3NC(=O)N[C@@H]32)[C@@H](C)O)CCCCCCC=CCCC[C@@](C)(C(N)=O)NC(=O)[C@H](CC(C)C)NC1=O [VIP-150] | 54.2 ± 5.9 nM |
| CC(=O)N[C@@H](CCCCN)C(=O)N[C@@H](CC(C)C)C(=O)N[C@@H](C)C(=O)N[C@@H](CCCCN)C(=O)NCCCCCC(=O)N[C@H](C(=O)N[C@@H](CO)C(=O)N[C@@H](Cc1ccccc1)C(=O)N[C@]1(C)CCCCCCC=CCCC[C@@](C)(C(=O)N[C@@H](CCC(=O)O)C(=O)N[C@@H](CC(N)=O)C(=O)N[C@@H](Cc2ccccc2)C(N)=O)NC(=O)[C@H](CC(C)C)NC(=O)[C@H](CC(C)C)NC(=O)[C@H](C)NC(=O)[C@H](Cc2c[nH]c3ccccc23)NC(=O)[C@H](Cc2ccc(O)cc2)NC(=O)[C@H](CCC(=O)O)NC1=O)[C@@H](C)O [VIP-129] (Ac-KLAK[Ahx]TSF[R8]EYWALL[S5]ENF-NH2; staple 9-16) | 9.1 ± 1 nM |
| CC(=O)N[C@H](C(=O)N[C@@H](CO)C(=O)N[C@@H](Cc1ccccc1)C(=O)N[C@]1(C)CCCCCCC=CCCC[C@@](C)(C(=O)N[C@@H](CCC(=O)O)C(N)=O)NC(=O)[C@H](CC2CCC2)NC(=O)[C@H](CC(C)C)NC(=O)[C@H](C)NC(=O)[C@H](Cc2c[nH]c3cc(Cl)ccc23)NC(=O)[C@H](Cc2ccc(O)cc2)NC(=O)[C@H](CCC(=O)O)NC1=O)[C@@H](C)O [VIP-138] (Ac-TSF[R8]EY[Trp(6-Cl)]AL[Cba][S5]E-NH2; staple 4-11) | < 1 nM |

Results, then the molecule that gave them:

| Kd | Structure (SMILES) |
| --- | --- |
| 2.7 ± 0.4 nM | CC(=O)N[C@@H](CCCCN)C(=O)N[C@@H](CCCCN)C(=O)NCCCCCC(=O)N[C@H](C(=O)N[C@@H](CO)C(=O)N[C@@H](Cc1ccccc1)C(=O)N[C@]1(C)CCCCCCC=CCCC[C@@](C)(C(=O)N[C@@H](CCC(=O)O)C(=O)N[C@@H](CC(N)=O)C(=O)N[C@@H](Cc2ccccc2)C(N)=O)NC(=O)[C@H](CC2CCC2)NC(=O)[C@H](CC(C)C)NC(=O)[C@H](C)NC(=O)[C@H](Cc2c[nH]c3ccccc23)NC(=O)[C@H](Cc2ccc(O)cc2)NC(=O)[C@H](CCC(=O)O)NC1=O)[C@@H](C)O [VIP-124] (Ac-KK[Ahx]TSF[R8]EYWAL[Cba][S5]ENF-NH2; staple 7-14) |
| 3.7 ± 0.9 nM | CC(=O)N[C@@H](CCCCN)C(=O)N[C@@H](CC(C)C)C(=O)N[C@@H](C)C(=O)N[C@@H](CCCCN)C(=O)NCCCCCC(=O)N[C@H](C(=O)N[C@@H](CO)C(=O)N[C@@H](Cc1ccccc1)C(=O)N[C@]1(C)CCCCCCC=CCCC[C@@](C)(C(N)=O)NC(=O)[C@H](CC(C)C)NC(=O)[C@H](CC(C)C)NC(=O)[C@H](C)NC(=O)[C@H](Cc2c[nH]c3ccccc23)NC(=O)[C@H](Cc2ccc(O)cc2)NC(=O)[C@H](CCC(=O)O)NC1=O)[C@@H](C)O [VIP-122] |
| 39.5 ± 3.9 nM | CC(=O)N[C@@H](CCCNC(=N)N)C(=O)NCCCCCC(=O)N[C@H](C(=O)N[C@@H](CO)C(=O)N[C@@H](Cc1ccccc1)C(=O)N[C@]1(C)CCCCCCC=CCCC[C@@](C)(C(=O)N[C@@H](CCC(=O)O)C(=O)N[C@@H](CC(N)=O)C(=O)N[C@@H](Cc2ccccc2)C(N)=O)NC(=O)[C@H](CC(C)C)NC(=O)[C@H](CC(C)C)NC(=O)[C@H](C)NC(=O)[C@H](Cc2c[nH]c3ccccc23)NC(=O)[C@H](Cc2ccc(O)cc2)NC(=O)[C@H](CCC(=O)O)NC1=O)[C@@H](C)O [VIP-118] |
| 160 ± 14.6 nM | CC(=O)N[C@@H](CCCNC(=N)N)C(=O)N[C@@H](CCCNC(=N)N)C(=O)NCCCCCC(=O)N[C@H](C(=O)N[C@@H](CO)C(=O)N[C@@H](Cc1ccccc1)C(=O)N[C@]1(C)CCCCCCC=CCCC[C@@](C)(C(=O)N[C@@H](CCC(=O)O)C(=O)N[C@@H](CC(N)=O)C(=O)N[C@@H](Cc2ccccc2)C(N)=O)NC(=O)[C@H](CC(C)C)NC(=O)[C@H](CC(C)C)NC(=O)[C@H](C)NC(=O)[C@H](Cc2c[nH]c3ccccc23)NC(=O)[C@H](Cc2ccc(O)cc2)NC(=O)[C@H](CCC(=O)O)NC1=O)[C@@H](C)O [VIP-117] (Ac-RR[Ahx]TSF[R8]EYWALL[S5]ENF-NH2; staple 7-14) |
| 33.6 ± 5.6 nM | CC(=O)N[C@@H](CCCCN)C(=O)N[C@@H](CCCCN)C(=O)N[C@@H](CO)C(=O)NCC(=O)N[C@@H](CO)C(=O)NCC(=O)N[C@H](C(=O)N[C@@H](CO)C(=O)N[C@@H](Cc1ccccc1)C(=O)N[C@]1(C)CCCCCCC=CCCC[C@@](C)(C(N)=O)NC(=O)[C@H](CC(C)C)NC(=O)[C@H](CC(C)C)NC(=O)[C@H](C)NC(=O)[C@H](Cc2c[nH]c3ccccc23)NC(=O)[C@H](Cc2ccc(O)cc2)NC(=O)[C@H](CCC(=O)O)NC1=O)[C@@H](C)O [VIP-151] (Ac-KKSGSGTSF[R8]EYWALL[S5]-NH2; staple 10-17) |
| 23.5 ± 1.4 nM | CC(=O)N[C@@H](CCCCN)C(=O)N[C@@H](CCCCN)C(=O)NCCCCCC(=O)N[C@H](C(=O)N[C@@H](CO)C(=O)N[C@@H](Cc1ccccc1)C(=O)N[C@]1(C)CCCCCCC=CCCC[C@@](C)(C(=O)N[C@@H](CCC(=O)O)C(=O)N[C@@H](CC(N)=O)C(=O)N[C@@H](Cc2ccc(O)cc2)C(N)=O)NC(=O)[C@H](CC(C)C)NC(=O)[C@H](CC(C)C)NC(=O)[C@H](C)NC(=O)[C@H](Cc2c[nH]c3ccccc23)NC(=O)[C@H](Cc2ccc(O)cc2)NC(=O)[C@H](CCC(=O)O)NC1=O)[C@@H](C)O [VIP-86] (Ac-KK[Ahx]TSF[R8]EYWALL[S5]ENY-NH2; staple 7-14) |
| 78.8 ± 8.2 nM | CC(=O)N[C@@H](CCCNC(=N)N)C(=O)N[C@@H](CCCNC(=N)N)C(=O)N[C@@H](CCCNC(=N)N)C(=O)NCCCCCC(=O)N[C@H](C(=O)N[C@@H](CO)C(=O)N[C@@H](Cc1ccccc1)C(=O)N[C@]1(C)CCCCCCC=CCCC[C@@](C)(C(N)=O)NC(=O)[C@H](CC(C)C)NC(=O)[C@H](CC(C)C)NC(=O)[C@H](C)NC(=O)[C@H](Cc2c[nH]c3ccccc23)NC(=O)[C@H](Cc2ccc(O)cc2)NC(=O)[C@H](CCC(=O)O)NC1=O)[C@@H](C)O [VIP-78] |
